Reference: PMC6834077, “The evolving story of AtzT, a periplasmic binding protein” (Acta Crystallographica. Section D, Structural Biology, 2019)
Several values for one entry are separate records, joined by “and”; a condition that tells them apart may be missing. Identical values can stand only once. Like-named read-outs stand apart in the source and are kept apart here.

Target: AtzT (Pseudomonas sp. (strain ADP), UniProt Q936X6)
Assay: Surface plasmon resonance (SPR) binding to immobilized AtzT, 1:1 steady-state affinity model
[1] = Biacore S200, CM5 chip, 293 K, HBS-P+ buffer with 2%(v/v) DMSO, mean ± standard deviation (n = 3)

AtzT, sequence (Q936X6 27-360 limits assumed): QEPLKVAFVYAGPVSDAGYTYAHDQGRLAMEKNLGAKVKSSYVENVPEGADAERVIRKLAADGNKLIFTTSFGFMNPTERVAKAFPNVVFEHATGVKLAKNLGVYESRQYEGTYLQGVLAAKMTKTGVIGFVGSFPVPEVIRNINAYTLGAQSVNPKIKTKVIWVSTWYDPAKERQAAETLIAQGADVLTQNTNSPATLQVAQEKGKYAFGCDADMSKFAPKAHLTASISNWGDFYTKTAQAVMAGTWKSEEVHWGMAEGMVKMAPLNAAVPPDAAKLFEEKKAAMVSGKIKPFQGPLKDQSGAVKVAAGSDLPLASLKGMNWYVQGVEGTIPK

Row | SMILES | Kd [1] | also measured
1 | CCNc1nc(O)nc(NC(C)C)n1 [2-Hydroxyatrazine] | 2.2 ± 0.2 µM | fold tighter binding than atrazine (2-hydroxyatrazine vs atrazine): ~700 fold and > 600 fold
2 | OB(O)c1ccc(I)cc1 [4-Iodophenylboronic acid] | 5000 ± 1000 µM | –
3 | Nc1ncnc2nc[nH]c12 [Adenine] | 2.5 ± 0.3 µM | Kd: ~2.5 µM
4 | Nc1nc(N)nc(O)n1 [Ammeline] | 0.36 ± 0.02 µM | fold difference in K D between ammeline and ammelide (ammeline vs ammelide): > 250 fold
5 | CCNc1nc(Cl)nc(NC(C)C)n1 [Atrazine] | 1500 ± 200 µM | Kd: ~1500 µM
6 | O=C1CC(=O)NC(=O)N1 [Barbaturic acid] | > 8000 µM | –
7 | CCC1(CC)C(=O)NC(=O)NC1=O [Barbitone] | > 8000 µM | –
8 | O=c1[nH]c(=O)[nH]c(=O)[nH]1 [Cyanuric acid] | 340 ± 30 µM | –
9 | Nc1cc[nH]c(=O)n1 [Cytosine] | 800 ± 90 µM | –
10 | Nc1nc2c(ncn2[C@@H]2O[C@H](COP(=O)(O)OP(=O)(O)OP(=O)(O)O)[C@@H](O)[C@H]2O)c(=O)[nH]1 [GTP] | > 8000 µM | –
11 | Nc1nc2nc[nH]c2c(=O)[nH]1 [Guanine] | 0.11 ± 0.02 µM | Kd: ~0.11 µM; time in which the majority of the guanine dissociates from AtzT (Supplementary Fig. S4): ~20 s
12 | Nc1nc(N)nc(N)n1 [Melamine] | > 400 µM | –
13 | O=C(O)c1c(Br)c(Br)c(C(=O)O)c(Br)c1Br [Tetrabromoterephthalic acid] | > 8000 µM | –
14 | Cc1c[nH]c(=O)[nH]c1=O [Thymine] | 620 ± 40 µM | –
15 | O=c1cc[nH]c(=O)[nH]1 [Uracil] | 1600 ± 300 µM | –
